# Results published in patent EP1803452A1, “ESTER DERIVATIVE AND PHARMACEUTICAL USE THEREOF” (Japan Tobacco, Inc., priority 2004, dated 2006).
# Legend:
# [1] = Metabolic stability test in liver S9; format: in vitro ADME; details: pH 7.4, human liver S9 2 mg protein/mL, LC/MS; for remaining at 10 min: unchanged form after 10 minutes at 37°C, read-out: Remaining rate in human liver S9 (%/10min); for remaining at 1 h: unchanged form after 60 minutes at 37°C, read-out: Remaining rate in human liver S9 (%/60min)
# Method in brief: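 Compound from DMSO solution was incubated at 37°C with human liver S9 (final 2 mg protein/mL) in 100 mM potassium phosphate pH 7.4 with an NADPH-regenerating system for 0, 10 and 60 minutes. Reactions were stopped with acetonitrile/0.1% formic acid. Unchanged compound was measured by LC/MS as remaining rate (%) relative to zero time.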
# [2] = Stability test in buffer (pH 7.4); format: physicochemical; details: phosphate buffer/acetonitrile 7:3, 100 mM potassium phosphate buffer (pH 7.4) and acetonitrile 7:3 (v/v), LC/MS; for remaining at 10 min: 10 minutes at 37°C, read-out: Buf. remaining rate (%/10min); for remaining at 1 h: 60 minutes at 37°C, read-out: Buf. remaining rate (%/60min)
# Method in brief: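 Compound from DMSO solution incubated at 37°C in 100 mM potassium phosphate buffer/acetonitrile 7:3 (v/v) for 0, 10 and 60 min, then quenched with acetonitrile containing formic acid (final 0.1%). Unchanged compound in supernatant quantified by LC/MS; remaining rate (%) = amount at each time / amount at zero time × 100.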
# [3] = Metabolic stability test in plasma; format: in vitro ADME, human; details: LC/MS; for remaining at 10 min: unchanged form after 10 minutes at 37°C in human plasma, read-out: Remaining rate in human plasma (%/10min); for remaining at 1 h: unchanged form after 60 minutes at 37°C in human plasma, read-out: Remaining rate in human plasma (%/60min)
# Method in brief: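 Compound in DMSO spiked into human, mouse or hamster plasma, incubated at 37°C for 0, 10 and 60 minutes, then quenched with acetonitrile/formic acid (final 0.1%). Unchanged compound in supernatant quantified by LC/MS; remaining rate (%) relative to time zero.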
Structure (SMILES),remaining at 10 min [1] [%],remaining at 1 h [1] [%],remaining at 10 min [2] [%],remaining at 1 h [2] [%],remaining at 10 min [3] [%],remaining at 1 h [3] [%]
"COC(=O)c1cc(C)c(OC(=O)CCCc2ccc(NC(=O)c3ccc(C)nc3-c3ccc(C(F)(F)F)cc3)c(C(=O)N(C)C)c2)c(C)c1 [Compound 1-65, 4-[4-(3-dimethylcarbamoyl-4-{[6-methyl-2-(4-trifluoromethylphenyl)pyridine-3-carbonyl]amino}phenyl)butyryloxy]-3,5-dimethylbenzoic acid methyl ester]",8,0,104,104,98,94
"COC(=O)c1ccc(OC(=O)CCCc2ccc(NC(=O)c3ccc(C)nc3-c3ccc(C(F)(F)F)cc3)c(C(=O)N(C)C)c2)cn1 [Compound 1-32, 5-[4-(3-dimethylcarbamoyl-4-{[6-methyl-2-(4-trifluoromethylphenyl)pyridine-3-carbonyl]amino}phenyl)butyryloxy]pyridine-2-carboxylic acid methyl ester]",0,0,100,97,0,0
"CCOC(=O)c1cc(Cl)c(OC(=O)CCCc2ccc(NC(=O)c3ccc(C)nc3-c3ccc(C(F)(F)F)cc3)c(C(=O)N(C)C)c2)c(OC)c1 [Compound 1-48, 3-chloro-4-[4-(3-dimethylcarbamoyl-4-{[6-methyl-2-(4-trifluoromethylphenyl)pyridine-3-carbonyl]amino}phenyl)butyryloxy]-5-methoxybenzoic acid ethyl ester]",16,6,99,97,0,0
"CN(C)C(=O)c1cc(CCCC(=O)Oc2ccc(C(=O)OCc3ccc(C(=O)OC(C)(C)C)cc3)cc2)ccc1NC(=O)c1ccccc1-c1ccc(C(F)(F)F)cc1 [Compound 1-103, 4-[4-(3-dimethylcarbamoyl-4-{(4'-trifluoromethylbiphenyl-2-carbonyl)amino}phenyl)butyryloxy]benzoic acid 4-(t-butoxycarbonyl)benzyl ester]",48,12,105,111,99,55
"COC(=O)c1ccc(OC(=O)CCCc2ccc(NC(=O)c3ccccc3-c3ccc(C(F)(F)F)cn3)c(C(=O)N(C)C)c2)cc1 [Compound 1-19, 4-(4-{3-dimethylcarbamoyl-4-[2-(5-trifluoromethylpyridin-2-yl)benzoylamino]phenyl}butyryloxy)benzoic acid methyl ester]",0,0,107,100,0,0
"COC(=O)c1cc(Cl)c(OC(=O)CCCc2ccc(NC(=O)c3ccc(C)nc3-c3ccc(C(F)(F)F)cc3)c(C(=O)N(C)C)c2)c(OC)c1 [Compound 1-36, 3-chloro-4-[4-(3-dimethylcarbamoyl-4-{[6-methyl-2-(4-trifluoromethylphenyl)pyridine-3-carbonyl]amino}phenyl)butyryloxy]-5-methoxybenzoic acid methyl ester]",3,0,100,103,0,0
"CN(C)C(=O)c1cc(CCCC(=O)Oc2ccc(C(=O)O)cc2)ccc1NC(=O)c1ccccc1-c1ccc(C(F)(F)F)cc1 [Compound 1-25, 4-(4-{3-dimethylcarbamoyl-4-[(4'-trifluoromethylbiphenyl-2-carbonyl)amino]phenyl}butyryloxy) benzoic acid]",4,0,99,101,89,59
"CCOC(=O)c1ccc(OC(=O)CCCc2ccc(NC(=O)c3ccccc3-c3ccc(C(F)(F)F)cc3)c(C(=O)N3CCCC3)c2)c(F)c1 [Compound 1-16, 3-fluoro-4-(4-{3-(pyrrolidine-1-carbonyl)-4-[(4'-trifluoromethylbiphenyl-2-carbonyl)amino]phenyl)butyryloxy)benzoic acid ethyl ester]",2,0,98,103,3,0
"COC(=O)c1ccc(OC(=O)CCCc2ccc(NC(=O)c3cccnc3-c3ccc(C(F)(F)F)cc3)c(C(=O)N(C)C)c2)cc1 [Compound 1-28, 4-[4-(3-dimethylcarbamoyl-4-{[2-(4-trifluoromethylphenyl)pyridine-3-carbonyl]amino}phenyl)butyryloxy]benzoic acid methyl ester]",0,0,101,102,0,0
"Cc1noc(-c2ccc(OC(=O)CCCc3ccc(NC(=O)c4ccccc4-c4ccc(C(F)(F)F)cc4)c(C(=O)N(C)C)c3)cc2)n1 [Compound 1-2, 4-{3-dimethylcarbamoyl-4-[(4'-trifluoromethylbiphenyl-2-carbonyl)amino]phenyl}butyric acid 4-(3-methyl-[1,2,4]oxadiazol-5-yl)phenyl ester]",0,0,98,97,20,0

# Next, values leading:
remaining at 10 min [1] [%],remaining at 1 h [1] [%],remaining at 10 min [2] [%],remaining at 1 h [2] [%],remaining at 10 min [3] [%],remaining at 1 h [3] [%],Structure (SMILES)
6,0,98,99,5,0,"CN(C)C(=O)c1cc(CCCC(=O)Oc2ccc(C(=O)OCc3ccsc3)cc2)ccc1NC(=O)c1ccccc1-c1ccc(C(F)(F)F)cc1 [Compound 1-99, 4-[4-(3-dimethylcarbamoyl-4-{(4'-trifluoromethylbiphenyl-2-carbonyl)amino}phenyl)butyryloxy]benzoic acid thiophen-3-ylmethyl ester]"
0,0,102,107,71,6,"CN(C)C(=O)c1cc(CCCC(=O)Oc2ccc(C(=O)OCCCO)cc2)ccc1NC(=O)c1ccccc1-c1ccc(C(F)(F)F)cc1 [Compound 1-92, 4-[4-(3-dimethylcarbamoyl-4-{(4'-trifluoromethylbiphenyl-2-carbonyl)amino}phenyl)butyryloxy]benzoic acid 3-hydroxypropyl ester]"
0,0,99,103,40,0,"COC(=O)COC(=O)c1ccc(OC(=O)CCCc2ccc(NC(=O)c3ccccc3-c3ccc(C(F)(F)F)cc3)c(C(=O)N(C)C)c2)cc1 [Compound 1-86, 4-[4-(3-dimethylcarbamoyl-4-{(4'-trifluoromethylbiphenyl-2-carbonyl)amino}phenyl)butyryloxy]benzoic acid methoxycarbonylmethyl ester]"
4,0,99,97,0,0,"COC(=O)c1ccc(-c2nc(C)ccc2C(=O)Nc2ccc(CCCC(=O)Oc3c(Cl)cc(C(=O)OC)cc3OC)cc2C(=O)N(C)C)cc1 [Compound 4-4, 3-chloro-4-[4-(3-dimethylcarbamoyl-4-{[2-(4-methoxycarbonylphenyl)-6-methylpyridine-3-carbonyl]amino}phenyl)butyryloxy]-5-methoxybenzoic acid methyl ester]"
0,0,101,106,70,11,"COC(=O)c1ccc(OC(=O)CCCc2ccc(NC(=O)c3ccc(C)nc3-c3ccc(C(F)(F)F)cc3)c(C(=O)N(C)C)c2)c(C)c1 [Compound 1-69, 4-[4-(3-dimethylcarbamoyl-4-{[6-methyl-2-(4-trifluoromethylphenyl)pyridine-3-carbonyl]amino}phenyl)butyryloxy]-3-methylbenzoic acid methyl ester]"
4,0,113,112,0,0,"COC(=O)c1cc(C(=O)OC(C)C)ccc1OC(=O)CCCc1ccc(NC(=O)c2ccc(C)nc2-c2ccc(C(F)(F)F)cc2)c(C(=O)N(C)C)c1 [Compound 1-72, 4-[4-(3-dimethylcarbamoyl-4-{[6-methyl-2-(4-trifluoromethylphenyl)pyridine-3-carbonyl]amino}phenyl)butyryloxy]isophthalic acid 1-isopropyl ester 3-methyl ester]"
